Test results taken from patent US20100099561A1, “HETEROBICYCLIC ALKYLTHIO-BRIDGED ISOXAZOLINES” (E.I. DU PONT DE NEMOURS AND COMPANY, priority 2008, published 2010).

Columns and labels:
Format in all cases: in vivo
[1] = test system: pigweed (Amaranthus retroflexus); test: Test B preemergence, pigweed; conditions: scale 0 to 100
Text: (§1) Seeds of plant species selected from blackgrass (Alopecurus myosuroides), downy bromegrass (Bromus tectorum), green foxtail (Setaria viridis), Italian ryegrass (Lolium multiflorum), wheat (Triticum aestivum), wild oat (Avena fatua), catchweed bedstraw (Galium aparine), bermudagrass (Cynodon dactylon), Surinam grass (Brachiaria decumbens), cocklebur (Xanthium strumarium), corn (Zea mays), large crabgrass (Digitaria sanguinalis), woolly cupgrass (Eriochloa villosa), giant foxtail (Setaria faberii), goosegrass (Eleusine indica), johnsongrass (Sorghum halepense), kochia (Kochia scoparia), lambsquarters (Chenopodium album), morningglory (Ipomoea coccinea), nightshade (eastern black nightshade, Solanum ptycanthum), yellow nutsedge (Cyperus esculentus), pigweed (Amaranthus retroflexus), ragweed (common ragweed, Ambrosia elatior), soybean (Glycine max), sunflower (common oilseed sunflower, Helianthus annuus), Russian thistle (Salsola kali), and velvetleaf (Abutilon theophrasti) were planted into a blend of loam soil and sand and treated preemergence with test compounds formulated in a non-phytotoxic solvent mixture which included a surfactant. Treated plants and controls were maintained in a greenhouse for 13 to 15 days, after which time all species were compared to controls and visually evaluated. Plant response ratings, summarized in Table B, are based on a scale of 0 to 100 where 0 is no effect and 100 is complete control. A dash (-) response means no test result.

[2] = test system: umbrella sedge (Cyperus difformis); test: Test B flooded paddy test, umbrella sedge; conditions: Flood, scale 0 to 100
Summary of the method: (§2)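 Paddy-water application to 2-leaf plants in pots held under 3 cm of flooding; response is a 0–100 visual control rating against controls after 13 to 15 days, and a dash marks a missing result.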

corn (Zea mays) = test: Test A postemergence, corn; conditions: 0 to 100 scale (0 no effect, 100 complete control)
Summary of the method: (§3)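 Scores reflect visual plant injury on a 0 (no effect) to 100 (complete control) scale, assessed about ten days after application in the greenhouse. Compounds were delivered in a non-phytotoxic solvent blend with surfactant, either preemergence to soil or postemergence at one- to two-leaf stage.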

[3] = test system: bermudagrass (Cynodon dactylon); test: Test B preemergence, bermudagrass; conditions: scale 0 to 100
Text: as §1

[4] = test system: ducksalad (Heteranthera limosa); test: Test B flooded paddy test, ducksalad; conditions: Flood, scale 0 to 100
Summary of the method: as §2

[5] = test system: giant foxtail (Setaria faberii); test: Test B preemergence, giant foxtail; conditions: scale 0 to 100
Text: as §1

[6] = test system: woolly cupgrass (Eriochloa villosa); test: Test B preemergence, woolly cupgrass; conditions: scale 0 to 100
Text: as §1

[7] = test system: morningglory (Ipomoea spp.); test: Test A postemergence, morningglory; conditions: 0 to 100 scale (0 no effect, 100 complete control)
Summary of the method: as §3

[8] = test system: barnyardgrass (Echinochloa crus-galli); test: Test B flooded paddy test, barnyardgrass; conditions: Flood
Summary of the method: as §2

wild oat (Avena fatua) = test: Test B preemergence, wild oat; conditions: scale 0 to 100
Text: as §1

[9] = test system: goosegrass (Eleusine indica); test: Test B preemergence, goosegrass; conditions: scale 0 to 100
Text: as §1

[10] = test system: wheat (Triticum aestivum); test: Test B preemergence, wheat; conditions: Preemergence, scale 0 to 100
Summary of the method: (§4)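 After sowing in loam–sand, soil surfaces received the compound preemergence; greenhouse growth followed for 13–15 d. Control compared with untreated plants, scored 0–100.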

[11] = test system: pigweed (Amaranthus retroflexus); test: Test A preemergence, pigweed; conditions: 0 to 100 scale (0 no effect, 100 complete control)
Summary of the method: as §3

[12] = test system: morningglory (Ipomoea spp.); test: Test A preemergence, morningglory; conditions: 0 to 100 scale (0 no effect, 100 complete control)
Summary of the method: as §3

[13] = test system: green foxtail (Setaria viridis); test: Test B preemergence, green foxtail; conditions: scale 0 to 100
Text: as §1

[14] = test system: giant foxtail (Setaria faberi); test: Test A preemergence, giant foxtail; conditions: 0 to 100 scale (0 no effect, 100 complete control)
Summary of the method: as §3

[15] = test system: cocklebur (Xanthium strumarium); test: Test B preemergence, cocklebur; conditions: scale 0 to 100
Text: as §1

[16] = test system: Italian ryegrass (Lolium multiflorum); test: Test B preemergence, Italian ryegrass; conditions: Preemergence, scale 0 to 100
Summary of the method: as §4

[17] = test system: johnsongrass (Sorghum halepense); test: Test B preemergence, johnsongrass; conditions: scale 0 to 100
Text: as §1

[18] = 250 g ai/ha, scale 0 to 100 (0 no effect, 100 complete control)

Compound: CC1(C)CC(S(=O)(=O)Cc2c(C(F)(F)Cl)nc3n(c2=O)CCC3)=NO1 [Compound 18]
- Plant response rating, Pigweed ([1]; 16 g ai/ha): 0
- Plant response rating, Pigweed ([1]; 31 g ai/ha): 100
- Plant response rating, Pigweed ([1]; 62 g ai/ha): 100
- Plant response rating, Pigweed ([1]; 125 g ai/ha): 100
- Plant response rating, Sedge, Umbrella ([2]; 31 g ai/ha): 0
- Plant response rating, Sedge, Umbrella ([2]; 62 g ai/ha): 0
- Plant response rating, Sedge, Umbrella ([2]; 125 g ai/ha): 0
- Plant response rating, Sedge, Umbrella ([2]; 250 g ai/ha): 0
- Plant response rating, Corn (corn (Zea mays); 125 g ai/ha): 0
- Plant response rating, Corn (corn (Zea mays); 500 g ai/ha): 40
- Plant response rating, Bermudagrass ([3]; 16 g ai/ha): 0
- Plant response rating, Bermudagrass ([3]; 31 g ai/ha): 98
- Plant response rating, Bermudagrass ([3]; 62 g ai/ha): 100
- Plant response rating, Bermudagrass ([3]; 125 g ai/ha): 100
- Plant response rating, Ducksalad ([4]; 31 g ai/ha): 0
- Plant response rating, Ducksalad ([4]; 62 g ai/ha): 0
- Plant response rating, Ducksalad ([4]; 125 g ai/ha): 0
- Plant response rating, Ducksalad ([4]; 250 g ai/ha): 0
- Plant response rating, Foxtail, Giant ([5]; 16 g ai/ha): 0
- Plant response rating, Foxtail, Giant ([5]; 31 g ai/ha): 80
- Plant response rating, Foxtail, Giant ([5]; 62 g ai/ha): 85
- Plant response rating, Foxtail, Giant ([5]; 125 g ai/ha): 98
- Plant response rating, Cupgrass, Woolly ([6]; 16 g ai/ha): 0
- Plant response rating, Cupgrass, Woolly ([6]; 31 g ai/ha): 20
- Plant response rating, Cupgrass, Woolly ([6]; 62 g ai/ha): 65
- Plant response rating, Cupgrass, Woolly ([6]; 125 g ai/ha): 95
- Plant response rating, Morningglory ([7]; 125 g ai/ha): 30
- Plant response rating, Morningglory ([7]; 500 g ai/ha): 60
- Plant response rating, Barnyardgrass ([8]; 31 g ai/ha, scale 0 to 100): 0
- Plant response rating, Barnyardgrass ([8]; 62 g ai/ha, scale 0 to 100): 0
- Plant response rating, Barnyardgrass ([8]; 125 g ai/ha, scale 0 to 100): 0
- Plant response rating, Barnyardgrass [8, 18]: 0
- Plant response rating, Oat, Wild (wild oat (Avena fatua); 16 g ai/ha): 0
- Plant response rating, Oat, Wild (wild oat (Avena fatua); 31 g ai/ha): 0
- Plant response rating, Oat, Wild (wild oat (Avena fatua); 62 g ai/ha): 0
- Plant response rating, Oat, Wild (wild oat (Avena fatua); 125 g ai/ha): 45
- Plant response rating, Goosegrass ([9]; 16 g ai/ha): 0
- Plant response rating, Goosegrass ([9]; 31 g ai/ha): 95
- Plant response rating, Goosegrass ([9]; 62 g ai/ha): 98
- Plant response rating, Goosegrass ([9]; 125 g ai/ha): 98
- Plant response rating, Wheat ([10]; 16 g ai/ha): 0
- Plant response rating, Wheat ([10]; 31 g ai/ha): 0
- Plant response rating, Wheat ([10]; 62 g ai/ha): 50
- Plant response rating, Pigweed ([11]; 125 g ai/ha): 60
- Plant response rating, Pigweed ([11]; 500 g ai/ha): 100
- Plant response rating, Morningglory ([12]; 125 g ai/ha): 0
- Plant response rating, Morningglory ([12]; 500 g ai/ha): 50
- Plant response rating, Foxtail, Green ([13]; 16 g ai/ha): 30
- Plant response rating, Foxtail, Green ([13]; 31 g ai/ha): 80
- Plant response rating, Foxtail, Green ([13]; 62 g ai/ha): 98
- Plant response rating, Foxtail, Green ([13]; 125 g ai/ha): 98
- Plant response rating, Foxtail, Giant ([14]; 125 g ai/ha): 90
- Plant response rating, Foxtail, Giant ([14]; 500 g ai/ha): 100
- Plant response rating, Cocklebur ([15]; 16 g ai/ha): 0
- Plant response rating, Cocklebur ([15]; 31 g ai/ha): 0
- Plant response rating, Cocklebur ([15]; 62 g ai/ha): 0
- Plant response rating, Cocklebur ([15]; 125 g ai/ha): 0
- Plant response rating, Ryegrass, Italian ([16]; 16 g ai/ha): 0
- Plant response rating, Ryegrass, Italian ([16]; 31 g ai/ha): 0
- Plant response rating, Ryegrass, Italian ([16]; 62 g ai/ha): 35
- Plant response rating, Ryegrass, Italian ([16]; 125 g ai/ha): 40
- Plant response rating, Johnsongrass ([17]; 16 g ai/ha): 15
- Plant response rating, Johnsongrass ([17]; 31 g ai/ha): 20
- Plant response rating, Johnsongrass ([17]; 62 g ai/ha): 60
- Plant response rating, Johnsongrass ([17]; 125 g ai/ha): 85

Compound: CC1(C)CC(S(=O)(=O)Cc2c(C(F)(F)C(F)(F)F)nc3n(c2=O)CCCC3)=NO1 [Compound 21]
- Plant response rating, Pigweed ([1]; 16 g ai/ha): 0
- Plant response rating, Pigweed ([1]; 31 g ai/ha): 0
- Plant response rating, Pigweed ([1]; 62 g ai/ha): 0
- Plant response rating, Pigweed ([1]; 125 g ai/ha): 98
- Plant response rating, Sedge, Umbrella ([2]; 62 g ai/ha): 0
- Plant response rating, Sedge, Umbrella ([2]; 250 g ai/ha): 0
- Plant response rating, Corn (corn (Zea mays); 125 g ai/ha): 0
- Plant response rating, Corn (corn (Zea mays); 500 g ai/ha): 0
- Plant response rating, Bermudagrass ([3]; 16 g ai/ha): 90
- Plant response rating, Bermudagrass ([3]; 31 g ai/ha): 100
- Plant response rating, Bermudagrass ([3]; 62 g ai/ha): 100
- Plant response rating, Bermudagrass ([3]; 125 g ai/ha): 100
- Plant response rating, Ducksalad ([4]; 62 g ai/ha): 0
- Plant response rating, Ducksalad ([4]; 250 g ai/ha): 0
- Plant response rating, Foxtail, Giant ([5]; 16 g ai/ha): 0
- Plant response rating, Foxtail, Giant ([5]; 31 g ai/ha): 60
- Plant response rating, Foxtail, Giant ([5]; 62 g ai/ha): 80
- Plant response rating, Foxtail, Giant ([5]; 125 g ai/ha): 85
- Plant response rating, Cupgrass, Woolly ([6]; 16 g ai/ha): 100
- Plant response rating, Cupgrass, Woolly ([6]; 31 g ai/ha): 100
- Plant response rating, Cupgrass, Woolly ([6]; 62 g ai/ha): 100
- Plant response rating, Cupgrass, Woolly ([6]; 125 g ai/ha): 100
- Plant response rating, Morningglory ([7]; 125 g ai/ha): 0
- Plant response rating, Morningglory ([7]; 500 g ai/ha): 40
- Plant response rating, Barnyardgrass ([8]; 62 g ai/ha, scale 0 to 100): 0
- Plant response rating, Barnyardgrass [8, 18]: 0
- Plant response rating, Oat, Wild (wild oat (Avena fatua); 16 g ai/ha): 0
- Plant response rating, Oat, Wild (wild oat (Avena fatua); 31 g ai/ha): 30
- Plant response rating, Oat, Wild (wild oat (Avena fatua); 62 g ai/ha): 30
- Plant response rating, Oat, Wild (wild oat (Avena fatua); 125 g ai/ha): 40
- Plant response rating, Goosegrass ([9]; 16 g ai/ha): 50
- Plant response rating, Goosegrass ([9]; 31 g ai/ha): 98
- Plant response rating, Goosegrass ([9]; 62 g ai/ha): 100
- Plant response rating, Goosegrass ([9]; 125 g ai/ha): 100
- Plant response rating, Wheat ([10]; 16 g ai/ha): 0
- Plant response rating, Wheat ([10]; 31 g ai/ha): 0
- Plant response rating, Wheat ([10]; 62 g ai/ha): 0
- Plant response rating, Wheat ([10]; 125 g ai/ha): 0
- Plant response rating, Pigweed ([11]; 125 g ai/ha): 0
- Plant response rating, Pigweed ([11]; 500 g ai/ha): 100
- Plant response rating, Morningglory ([12]; 125 g ai/ha): 0
- Plant response rating, Morningglory ([12]; 500 g ai/ha): 50
- Plant response rating, Foxtail, Green ([13]; 16 g ai/ha): 0
- Plant response rating, Foxtail, Green ([13]; 31 g ai/ha): 45
- Plant response rating, Foxtail, Green ([13]; 62 g ai/ha): 100
- Plant response rating, Foxtail, Green ([13]; 125 g ai/ha): 100
- Plant response rating, Foxtail, Giant ([14]; 125 g ai/ha): 90
- Plant response rating, Foxtail, Giant ([14]; 500 g ai/ha): 100
- Plant response rating, Cocklebur ([15]; 16 g ai/ha): 0
- Plant response rating, Cocklebur ([15]; 31 g ai/ha): 0
- Plant response rating, Cocklebur ([15]; 62 g ai/ha): 0
- Plant response rating, Cocklebur ([15]; 125 g ai/ha): 0
- Plant response rating, Ryegrass, Italian ([16]; 16 g ai/ha): 0
- Plant response rating, Ryegrass, Italian ([16]; 31 g ai/ha): 0
- Plant response rating, Ryegrass, Italian ([16]; 62 g ai/ha): 0
- Plant response rating, Ryegrass, Italian ([16]; 125 g ai/ha): 40
- Plant response rating, Johnsongrass ([17]; 16 g ai/ha): 0
- Plant response rating, Johnsongrass ([17]; 31 g ai/ha): 30
- Plant response rating, Johnsongrass ([17]; 62 g ai/ha): 60
- Plant response rating, Johnsongrass ([17]; 125 g ai/ha): 98
